Data taken from patent US4684647A, “Anti-bacterial pyrido-benzothiazine derivative and pharmaceutical composition therefor” (priority 1984, dated 1987).
≈ marks a conversion by molar mass, not a printed value.

Legend:
Pseudomonas aeruginosa = assay: MIC in agar, Pseudomonas aeruginosa; assay type: cell-based; details: Isosensitest agar, 10^4 CFU, 24 h, 37° C., read-out: MIC, B = Pseudomonas aeruginosa
Description: (§1) The antibacterial activity (minimum inhibiting concentration, MIC) of the compounds according to the invention has been determined in agar, by adding the compound under evaluation at concentrations of from 0.1 to 100 meg/ml by means of a "multipoint inoculator" (Denley Techn. Ltd., England); the medium used was Isosensitest agar (Oxoid); the bacterial inoculate was 10^4 colony forming unity (CFU) per inoculation point. The reading of the results was done after 24 hour-incubation in thermostat at 37° C.
(§2) The MIC was defined as the lowest concentration of chemotherapeutic agent still capable of totally inhibiting the growth of bacteria, as detected from a lack of colony development in the inoculation point.
(§3) The microorganisms used for evaluating the activity of the specific compounds have been: Escherichia coli, Klebsiella P., Enterobacter, Serratia, Citrobacter, Proteus (+), Salmonella, Pseudomonas, Staphylococcus. All the compounds according to the present invention are provided with antibacterial activity against one or more microorganism(s) among those above mentioned. Some of such compounds are absorbed after having been administered orally to the animals, and are particularly useful as disinfectants of the urinary tract in that they are excreted in a high percentage (50-70% over 24 hours after the administration of 50 mg/kg per os) as such, and in metabolic active form, through the urine.
B = P udomonas aeruginosa

bacteria [1] = assay: antibacterial characteristics tested in vivo
[2] = tissue levels by HPLC after oral administration to rats; assay type: in vivo; details: rat; for concentration at 0.5 h / concentration at 1 h / concentration at 2 h / concentration at 4 h / concentration at 8 h / concentration at 15 h: 50 mg/kg oral; for Cmax: po
[3] = plasma levels by HPLC after intraperitoneal and oral administration to rats; assay type: in vivo; details: rat; for concentration at 0.5 h: 0.50 h; for concentration at 0.5 h / concentration at 1 h / concentration at 2 h / concentration at 4 h / concentration at 8 h / concentration at 15 h: read-out: Plasma level
Description: We give hereinafter in Table 2 the haematic levels of compound (h) as measured in plasma by HPLC. Each value is the average of three tested rats.
More precisely in FIG. 1 the plasma levels in rats versus the time, are reported, after i.p. administration of 10 mg/kg and 25 mg/kg of compound (h), while in FIG. 2 the plasma levels are reported of compound (h) in rats, versus the time, after oral administration of 25, 50 and 100 mg/kg of said compound.

bacteria [4] = assay: antibacterial activity in vitro, overall; assay type: cell-based; details: in vitro, Table 1
Description: as §1, §2, §3

[5] = test system: Proteus Morgani (indole +); assay: MIC in agar, Proteus Morgani (indole +); assay type: cell-based; details: Isosensitest agar, 10^4 CFU, 24 h, 37° C.; read-out: MIC, D = Proteus Morgani (indole +)
Description: as §1, §2, §3
D = Proteus Morgani (indole +)

Enterobacter = assay: MIC in agar, Enterobacter; assay type: cell-based; details: Isosensitest agar, 10^4 CFU, 24 h, 37° C., read-out: MIC, F = Enterobacter
Description: as §1, §2, §3

Escherichia coli (981) = assay: MIC in agar, Escherichia coli (981); assay type: cell-based; details: Isosensitest agar, 10^4 CFU, 24 h, 37° C.
Description: as §1, §2, §3
A = Escherichia coli (981)

Staphylococcus aureus = assay: MIC in agar, Staphylococcus aureus; assay type: cell-based; details: Isosensitest agar, 10^4 CFU, 24 h, 37° C.
Description: as §1, §2, §3

Klebsiella pneumoniae = assay: MIC in agar, Klebsiella pneumoniae; assay type: cell-based; details: Isosensitest agar, 10^4 CFU, 24 h, 37° C., read-out: MIC, E = Klebsiella pneumoniae
Description: as §1, §2, §3
E = Klebsiella pneumoniae

in vivo = details: rat, po
Description: In Table 4 the percentage of urinary excretion of compound (h) is reported, as measured in the 24 hours successive to oral administration of the same to rats.
Each value is the average of three tested rats.
The tests have been performed in comparison with Ofloxacin, a well known antibacterial compound. The amount of excreted product has been determined with microbiological analysis, by using Klebsiella Pneumoniae as the testing microorganism.

[6] = preliminary pharmacokinetic tests in dogs, oral; assay type: in vivo; details: dog, 20 mg/kg per os
Text: Preliminary tests performed in dogs with the compound (h) have given still better results than the tests performed in rats.

Citrobacter = assay: MIC in agar, Citrobacter; assay type: cell-based; details: Isosensitest agar, 10^4 CFU, 24 h, 37° C., read-out: MIC, G = Citrobacter
Description: as §1, §2, §3

[7] = heart, read-out: Tissue level, heart
[8] = kidney, read-out: Tissue level, kidney
[9] = liver, read-out: Tissue level, liver
[10] = plasma, read-out: Tissue levels table, plasma

CN1CCN(c2c(F)cc3c(=O)c(C(=O)O)cn4c3c2SCC4)CC1 [Compound (h), 9-Fluoro-10[N-(4'-methyl)-piperazinyl]-7-oxo-2,3-dihydro-7H-pyrido[1,2,3 de][1,4]benzothiazine-6-carboxylic acid]
MIC (Pseudomonas aeruginosa): > 50 mg/L
in vivo antibacterial characteristics (bacteria [1]): systemic antibacterial compound having long-lasting activity
concentration at 0.5 h [2, 7]: 20 µg/mL
concentration at 1 h [2, 7]: 31.4 µg/mL
concentration at 2 h [2, 7]: 21 µg/mL
concentration at 4 h [2, 7]: 18.1 µg/mL
concentration at 8 h [2, 7]: 9.93 µg/mL
concentration at 15 h [2, 7]: 5.35 µg/mL
concentration at 0.5 h [2, 8]: 32.6 µg/mL
concentration at 1 h [2, 8]: 61.2 µg/mL
concentration at 2 h [2, 8]: 50.6 µg/mL
concentration at 4 h [2, 8]: 42.4 µg/mL
concentration at 8 h [2, 8]: 17.8 µg/mL
concentration at 15 h [2, 8]: 7.95 µg/mL
concentration at 0.5 h [2, 9]: 63.5 µg/mL
concentration at 1 h [2, 9]: 80.4 µg/mL
concentration at 2 h [2, 9]: 58.1 µg/mL
concentration at 4 h [2, 9]: 34.1 µg/mL
concentration at 8 h [2, 9]: 21.6 µg/mL
concentration at 15 h [2, 9]: 11.3 µg/mL
concentration at 0.5 h [2, 10]: 8.75 µg/mL
concentration at 1 h [2, 10]: 10.1 µg/mL
concentration at 2 h [2, 10]: 9.95 µg/mL
concentration at 4 h [2, 10]: 6.37 µg/mL
concentration at 8 h [2, 10]: 4.95 µg/mL
concentration at 15 h [2, 10]: 4.29 µg/mL
Cmax ([2]; heart, read-out: mean tissue level at the moment of peak, heart): 31.4 µg/mL
Cmax ([2]; liver, read-out: mean tissue level at the moment of peak, liver (first of two values printed for liver)): 61.2 µg/mL
Cmax ([2]; liver, read-out: mean tissue level at the moment of peak, liver (second of two values printed for liver)): 80.4 µg/mL
presence in brain ([2]; oral): No presence
Kp ([2]; oral, various organs, read-out: ratio of organ concentration with respect to the concentration in plasma): > 3
Cmax ([2]; plasma, read-out: mean level at the moment of peak, plasma): 10.1 µg/mL
concentration at 0.5 h ([3]; plasma, ip, 10 mg/kg i.p.): 2.7 µg/mL
concentration at 1 h ([3]; plasma, ip, 10 mg/kg i.p.): 2.53 µg/mL
concentration at 2 h ([3]; plasma, ip, 10 mg/kg i.p.): 2.17 µg/mL
concentration at 4 h ([3]; plasma, ip, 10 mg/kg i.p.): 1.83 µg/mL
concentration at 8 h ([3]; plasma, ip, 10 mg/kg i.p.): 1.63 µg/mL
concentration at 0.5 h ([3]; plasma, ip, 25 mg/kg i.p.): 8.35 µg/mL
concentration at 1 h ([3]; plasma, ip, 25 mg/kg i.p.): 6.29 µg/mL
concentration at 2 h ([3]; plasma, ip, 25 mg/kg i.p.): 6.44 µg/mL
concentration at 4 h ([3]; plasma, ip, 25 mg/kg i.p.): 5.01 µg/mL
concentration at 8 h ([3]; plasma, ip, 25 mg/kg i.p.): 3.72 µg/mL
concentration at 0.5 h ([3]; plasma, po, 25 mg/kg os): 5.33 µg/mL
concentration at 1 h ([3]; plasma, po, 25 mg/kg os): 7.3 µg/mL
concentration at 2 h ([3]; plasma, po, 25 mg/kg os): 5.67 µg/mL
concentration at 4 h ([3]; plasma, po, 25 mg/kg os): 3.6 µg/mL
concentration at 8 h ([3]; plasma, po, 25 mg/kg os): 3.27 µg/mL
concentration at 15 h ([3]; plasma, po, 25 mg/kg os): 2.73 µg/mL
concentration at 0.5 h ([3]; plasma, po, 50 mg/kg os): 8.75 µg/mL
concentration at 1 h ([3]; plasma, po, 50 mg/kg os): 10.1 µg/mL
concentration at 2 h ([3]; plasma, po, 50 mg/kg os): 9.95 µg/mL
concentration at 4 h ([3]; plasma, po, 50 mg/kg os): 6.37 µg/mL
concentration at 8 h ([3]; plasma, po, 50 mg/kg os): 4.95 µg/mL
concentration at 15 h ([3]; plasma, po, 50 mg/kg os): 4.29 µg/mL
concentration at 0.5 h ([3]; plasma, po, 100 mg/kg os): 12.5 µg/mL
concentration at 1 h ([3]; plasma, po, 100 mg/kg os): 20.6 µg/mL
concentration at 2 h ([3]; plasma, po, 100 mg/kg os): 22.2 µg/mL
concentration at 4 h ([3]; plasma, po, 100 mg/kg os): 15.9 µg/mL
concentration at 8 h ([3]; plasma, po, 100 mg/kg os): 13 µg/mL
concentration at 15 h ([3]; plasma, po, 100 mg/kg os): 6.22 µg/mL
half-life ([3]; plasma, deduced from Table 2, read-out: half-life time (converted)): 10 h
absorption per os and i.p. [3]: quickly absorbed
plasma levels induced [3]: high and long-lasting levels both in the plasma and in the various organs
anti-bacterial activity in vitro (bacteria [4]): very good and comparable anti-bacterial activity
MIC [5]: 1.56 mg/L (≈ 4.29 µM)
MIC (Enterobacter): < 0.39 mg/L
MIC (Escherichia coli (981)): 0.78 mg/L (≈ 2.15 µM)
MIC (Staphylococcus aureus): 0.78 mg/L (≈ 2.15 µM)
MIC (Klebsiella pneumoniae): < 0.39 mg/L
dose excreted at 24 h (in vivo; 20 mg/kg): 77.3 ± 6.81%
dose excreted at 24 h (in vivo; 50 mg/kg): 73 ± 4.58%
plasma levels compared with rats [6]: sharply higher plasma levels
half-life ([6]; plasma, po): 24 h
Cmax ([6]; plasma, po, read-out: peak plasma level): 8 µg/mL
MIC (Citrobacter): 1.56 mg/L (≈ 4.29 µM)
